Reference: US20240400606A1, “SMALL MOLECULE ACTIVATORS OF THE IMMUNE SYSTEM” (THE BOARD OF TRUSTEES OF THE UNIVERSITY OF ILLINOIS, priority 2021, published 2024)

Columns and labels:
[1] = target: IMPAD1 (Homo sapiens (Human), UniProt Q9NX62); test: IMPAD1 in vitro activity assay; type: biochemical
Description: IMPAD1 Assay. Working stock solutions of IMPAD1 (0.1 mg/mL in 1× activity assay buffer), adenosine 3′,5′-diphosphate (PAP; dissolved first in DMSO to make stock solution then diluted to 200 μM in 1× assay buffer), and compound of interest in DMSO were prepared. Two technical replicates were assayed for each sample. Reaction mixes were prepared by mixing 6 μL IMPAD1 stock solution, 2.4 μL compound of interest stock or DMSO, 21.6 μL 1× assay buffer to make 30 μL reaction mix. Amount of reaction mix was scaled accordingly to number of samples assayed. 15 μL of reaction mix was dispensed to each well (384-well plate). 15 μL 200 μM PAP stock solution was added to each well. The reaction was incubated at 37° C. for 45 minutes, then quenched by addition of 15 μL of malachite green solution A, followed by addition of 15 μL of malachite green solution B. The plate was left at room temperature for 20 minutes for color stabilization, then absorbance was read at 620 nm. Phosphate standard curve generation was identical to that described under “Optimized Coupled Chromogenic SULT2B1b Activity Assay”, 384-well format. […]
Percent inhibition was calculated as: 100−[100×[(Phosphate produced per wellaverage, compound of interest−Phosphate produced per wellaverage, PAP)/(Phosphate produced per wellaverage, IMPAD1−Phosphate produced per wellaverage, PAP)]].

[2] = test system: whole cell CS levels in T47D; test: Whole cell cholesterol sulfate quantification, T47D; type: cell-based; conditions: 6.25 μM, 72 hours
Description: (§1) General Whole Cell Cholesterol Sulfate Quantification. 60×15 mm tissue culture dishes were seeded with MCF-7 at 2×10^6 cells/dish or T47D at 1×10^6 cells per dish, 5 mL total media volume, and allowed to adhere overnight. Compounds of interest were dissolved in DMSO. Cells were treated with 25 μL 1.25 mM compound of interest stock (6.25 μM final compound concentration, 0.5% final DMSO concentration) or DMSO for 72 hours. To harvest, media was aspirated, and cells were washed once with PBS before detaching with trypsin. Trypsin was quenched with media. Cells were centrifuged at 300 xg for 3 minutes and supernatant was discarded. Cells were resuspended in media and counted using a Countess 3 automated cell counter (Thermo Fisher Scientific). 1.5×10^6 cells were collected, washed twice with 1 mL PBS, then pelleted and stored at −80° C. until lysis. […] 100 μL of supernatant was transferred to an empty Eppendorf tube and submitted for LC-MS/MS quantification (UIUC Metabolomics Center), along with 5 mM cholesterol sulfate sodium salt standard.
(§2) General LC-MS/MS Quantification Method. Both DHEAS and CS samples were analyzed by 6500 QTRAP (Sciex, Redwood City, CA) liquid chromatography-tandem mass spectrometry. […] Cholesterol-sulfate and DHEA-sulfate were detected by multiple reaction monitoring (MRM) at m/z 465→97.0 and 367.0→97.0 respectively. […]

[3] = test system: whole cell CS levels in MDG; test: Whole cell cholesterol sulfate quantification, MDG; type: cell-based, human; conditions: 6.25 μM, 72 hours
Description: as §1, §2

[4] = test system: free cholesterol levels in MCF-7; test: Whole cell cholesterol assay; type: cell-based, human; conditions: MCF-7, 6.25 μM, 72 hours
Description: Whole Cell Cholesterol Assay. Assay was run according to manufacturer's instructions. Briefly, 5000 MCF-7 cells were plated in 99 μL media in a 96-well plate and allowed to adhere overnight before DMSO solutions of compounds were added to each well. Final concentration of DMSO in each well is 1%, final volume: 100 μL. At the end of 72 hours, media was aspirated, and cells were washed twice with 100 μL PBS. 50 μL of cholesterol lysis solution was added and cells were incubated for 30 minutes at 37° C. 50 μL of sample was then transferred to a 96-well white walled assay plate. 50 μL of cholesterol detection reagent was added to all wells and incubated at room temperature for 1 hour. Luminescence was read using a SpectraMax M3 plate reader (Molecular Devices). Cholesterol levels were determined by use of a cholesterol standard curve.

[5] = test system: STS and SULT2B1b levels in T47D; test: Western blot of STS and SULT2B1b after treatment, T47D; type: cell-based; conditions: 6.25 μM, 72 hours
Description: Western Blot Analysis. Cells were lysed using RIPA buffer containing phosphatase (BioVision) and protease inhibitor cocktail (Calbiochem). Protein concentrations were determined using the BCA assay (Pierce). Lysates containing 15 μg of protein were loaded onto 4-20% gradient gels (BioRad), and SDS-PAGE was run. Proteins were then transferred onto membrane (PVDF Millipore) for Western Blot analysis. Blots were blocked with BSA solution (2 g in 40 mL TBST) for one hour followed by primary antibody addition and incubation overnight (using manufacturer's recommended dilutions). Following overnight incubation, blots were washed with TBST, and incubated with HRP-linked secondary antibody for 1 hour in TBST. Blots were washed, then imaged with ChemiDoc after incubation with SuperSignal West Pico Solution following manufacturer's procedures.

IMPAD1, sequence (Q9NX62 whole entry): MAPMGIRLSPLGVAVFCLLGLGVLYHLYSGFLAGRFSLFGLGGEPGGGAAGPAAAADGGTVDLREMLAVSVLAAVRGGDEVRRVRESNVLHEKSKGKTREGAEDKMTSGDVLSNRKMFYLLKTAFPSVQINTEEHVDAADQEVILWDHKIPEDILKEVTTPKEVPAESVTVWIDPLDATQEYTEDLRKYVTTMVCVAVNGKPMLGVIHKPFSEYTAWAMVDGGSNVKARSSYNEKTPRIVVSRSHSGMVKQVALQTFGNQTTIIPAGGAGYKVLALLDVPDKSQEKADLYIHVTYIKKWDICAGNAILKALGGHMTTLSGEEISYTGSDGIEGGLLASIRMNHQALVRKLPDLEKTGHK

SMILES | inhibition of IMPAD1 [1] | whole cell CS levels vs DMSO [2] | whole cell CS levels vs DMSO [3] | free cholesterol levels vs DMSO [4] | STS and SULT2B1b levels after treatment [5]
C[C@]12CCC(=O)N(Cc3ccc(Cl)cc3)C1=CC[C@@H]1[C@@H]2C(=O)C[C@]2(C)C(=O)CC[C@@H]12 [Compound 1, (4aR,4bS,6aS,9aS,9bS)-1-(4-chlorobenzyl)-4a,6a-dimethyl-3,4,4a,6,6a,8,9,9a,9b,10-decahydro-1H-indeno[5,4-f]quinoline-2,5,7(4bH)-trione] | does not inhibit |  |  |  | 
C[C@]12CCC(=O)N(Cc3ccc(Br)cc3)C1=CC[C@@H]1[C@@H]2C(=O)C[C@]2(C)C(=O)CC[C@@H]12 [Compound 3, (4aR,4bS,6aS,9aS,9bS)-1-(4-bromobenzyl)-4a,6a-dimethyl-3,4,4a,6,6a,8,9,9a,9b,10-decahydro-1H-indeno[5,4-f]quinoline-2,5,7(4bH)-trione] |  | confirmed | confirmed | no statistical difference | unchanged
